Assay results published in ChEMBL document CHEMBL1201862, “PubChem BioAssay data set” (2004).
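Test compounds were applied to cells in 96-well plates for 48 hours at 5 doses. Here, GI50 denotes the concentration required for 50% inhibition of growth.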 Calls of active or inactive are those of the source. No stated cut-off is given here; in the data, active = GI50 up to about 1.1 µM and inactive = higher.

How the values were obtained:
Assay in all cases: NCI-60 cell line screen, 48 h
[1] = test system: ACHN
[2] = test system: CCRF-CEM
[3] = test system: HCT-15
[4] = test system: K562
[5] = test system: KM12
[6] = test system: LOX IMVI
[7] = test system: M14
[8] = test system: NCI-H23
[9] = test system: OVCAR-8
[10] = test system: SF-268
[11] = test system: SF-295
[12] = test system: SK-MEL-5
[13] = test system: SN12C
[14] = test system: TK-10
[15] = test system: UO-31
[16] = test system: Hs-578T
[17] = test system: MDA-N
[18] = test system: NCI/ADR-RES
[19] = test system: BT-549

Row | SMILES | GI50 [1] | GI50 [2] | GI50 [3] | GI50 [4] | GI50 [5] | GI50 [6] | GI50 [7] | GI50 [8] | GI50 [9] | GI50 [10] | GI50 [11] | GI50 [12] | GI50 [13] | GI50 [14] | GI50 [15] | GI50 [16] | GI50 [17] | GI50 [18] | GI50 [19]
1 | CN(C)CCNc1ccc2ncn3c4ccccc4c(=O)c1c23 | 1.26 µM (inactive) | 2.25 µM (inactive) | 2.85 µM | > 100 µM (inactive) | 2.44 µM (inactive) | 1.15 µM (inactive) | 3.11 µM (inactive) | 3.32 µM (inactive) | 1.15 µM (inactive) | 1.91 µM (inactive) | 2.47 µM (inactive) | 2.74 µM (inactive) | 2.9 µM (inactive) | 2.93 µM (inactive) | 1.53 µM (inactive) | – | – | – | –
2 | C=CCC(NCc1ccccc1)[C@H](OCc1ccccc1)[C@@H]1COC(C)(C)O1 (stereo not given in full) | 42.6 µM (inactive) | 28.1 µM (inactive) | 23.7 µM | 23.7 µM (inactive) | 29.8 µM (inactive) | 26 µM (inactive) | 36.2 µM (inactive) | 28.3 µM (inactive) | 35.2 µM (inactive) | 44.9 µM (inactive) | 27.8 µM (inactive) | 23 µM (inactive) | 43.4 µM (inactive) | 23.8 µM (inactive) | 22.9 µM (inactive) | 24.7 µM (inactive) | 31.8 µM (inactive) | 46.8 µM (inactive) | –
3 | CC1(C)CC(=O)C(=[N+]=[N-])C(=O)C1 | > 100 µM (inactive) | > 100 µM (inactive) | > 100 µM | > 100 µM (inactive) | > 100 µM (inactive) | > 100 µM (inactive) | > 100 µM (inactive) | > 100 µM (inactive) | – | > 100 µM (inactive) | > 100 µM (inactive) | – | > 100 µM (inactive) | > 100 µM (inactive) | – | – | – | – | –
4 | COc1ccc(Nc2nc3ccccc3nc2-c2cccs2)cc1OC | > 10 µM (inactive) | > 10 µM (inactive) | > 10 µM | > 10 µM (inactive) | > 10 µM (inactive) | > 10 µM (inactive) | > 10 µM (inactive) | > 10 µM (inactive) | > 10 µM (inactive) | > 10 µM (inactive) | > 10 µM (inactive) | > 10 µM (inactive) | > 10 µM (inactive) | > 10 µM (inactive) | > 10 µM (inactive) | > 10 µM (inactive) | > 10 µM (inactive) | > 10 µM (inactive) | –
5 | N#Cc1ccc(OCCSCCCCCCCCCCSCCOc2ccc(C#N)cc2)cc1 | > 100 µM (inactive) | > 100 µM (inactive) | > 100 µM | > 100 µM (inactive) | > 100 µM (inactive) | > 100 µM (inactive) | > 100 µM (inactive) | > 100 µM (inactive) | > 100 µM (inactive) | > 100 µM (inactive) | 22.6 µM (inactive) | 3.03 µM (inactive) | > 100 µM (inactive) | > 100 µM (inactive) | 0.402 µM (active) | – | – | – | –
6 | CCOC(=O)/C(=C\NC(=S)Nc1ccc(Cl)c(Cl)c1)C(=O)c1ccccc1 | 18.2 µM (inactive) | 31.1 µM (inactive) | 29.1 µM | 10 µM (inactive) | 26.5 µM (inactive) | 69.7 µM (inactive) | 27.3 µM (inactive) | 8.61 µM (inactive) | 47.6 µM (inactive) | 26.6 µM (inactive) | 33.6 µM (inactive) | 27.1 µM (inactive) | 46.5 µM (inactive) | – | 1.52 µM (inactive) | 2.11 µM (inactive) | 27.2 µM (inactive) | 33 µM (inactive) | –
7 | O=C1C=C(NCCc2ccc(O)cc2)C(=O)C=C1NCCc1ccc(O)cc1 | > 100 µM (inactive) | 46.9 µM (inactive) | > 100 µM | 38 µM (inactive) | > 100 µM (inactive) | 35.1 µM (inactive) | – | > 100 µM (inactive) | 48.8 µM (inactive) | > 100 µM (inactive) | > 100 µM (inactive) | > 100 µM (inactive) | > 100 µM (inactive) | > 100 µM (inactive) | > 100 µM (inactive) | 85.3 µM (inactive) | – | > 100 µM (inactive) | > 100 µM (inactive)
8 | N#Cc1nc(C(F)(F)F)oc1N | > 100 µM (inactive) | 95.3 µM (inactive) | > 100 µM | > 100 µM (inactive) | > 100 µM (inactive) | > 100 µM (inactive) | > 100 µM (inactive) | > 100 µM (inactive) | > 100 µM (inactive) | > 100 µM (inactive) | > 100 µM (inactive) | > 100 µM (inactive) | > 100 µM (inactive) | > 100 µM (inactive) | > 100 µM (inactive) | > 100 µM (inactive) | > 100 µM (inactive) | > 100 µM (inactive) | –
